Assay results from patent US20250236599A1, “LIPID NANOPARTICLES FOR OLIGONUCLEOTIDE DELIVERY” (ZIPHIUS NV, priority 2021, published 2025).

Experiments:
[1] = test system: expression of the luciferase saRNA; assay: In vivo bioluminescent imaging after intramuscular injection of LNP-formulated luciferase saRNA; settings: 1 μg LNP-formulated luciferase saRNA intramuscularly, female SWISS mice
Method: (§1) Female SWISS mice (6 weeks old) were purchased from Janvier Laboratories (Paris, France) and kept in individually ventilated cages with access to food and water ad libitum. Mice were anesthetized with isoflurane (Zoetis, Louvain-La-Neuve, Belgium) (5% for induction and 2% for maintenance) and intramuscularly injected with a total of 1 μg in 100 μL Tris-HCL (50 μL per leg) LNP-formulated luciferase saRNA (for each group n=7). The expression of the luciferase induced bioluminescence was measured via non-invasive In vivo bioluminescent imaging (In vivo Imaging System (IVIS) Lumina III, Perkin Elmer, Waltham, Massachusetts, USA), 10 minutes after subcutaneous injection of […] of D-luciferin (GoldBio, Saint Louis, Missouri, USA, #LUCK-1G) were measured in day 0 (before injection), day 1, day 3, day 5, day 7, day 10, day 15 and day 20.

[2] = saRNA loading / encapsulation efficiency, Quant-IT RiboGreen assay; assay type: physicochemical; settings: LNP lipid:DOPE:Cholesterol:DMG-PEG 35:20:43.5:1.5, firefly luciferase saRNA
Method: The saRNA loading in LNP formulations was quantified using a Quant-IT RiboGreen assay (Thermo Fisher Scientific, Waltham, Massachusetts, USA) as previously described. 14 samples were diluted tenfold in 1x Tris HCL-EDTA (TE) buffer (10 mM Tris-HCL, 1 mM EDTA, pH 7.5) with or without 2% (v/v) Triton X-100 (Sigma-Aldrich, Saint Louis, Missouri, USA). Standard solutions were also prepared in 1xTE with or without 2% (v/v) Triton X-100 to account for any variation in fluorescence. The assay was performed according to the manufacturer's protocol. Samples were loaded on a black 96-well plate and analysed for fluorescence on a microplate reader (Tecan Infinite® 200 PRO) at an excitation of 485 nm and emission at 528 nm. Encapsulation efficiency was calculated between 80-100%.

[3] = LNP particle size, polydispersity index and charge by Zeta Sizer; assay type: physicochemical; settings: LNP lipid:DOPE:Cholesterol:DMG-PEG 35:20:43.5:1.5, firefly luciferase saRNA; for Polydispersity Index (PI) / Z-average (nm): N/P approx. 40/1
Method: Cationic lipids, DOPE, Cholesterol and DMG-PEG lipid were solubilized in ethanol or DMSO at a molar ratio of 35:20:43.5:1.5 and a concentration of 100:25:20:25 μg/μL for C12-200 or 170:25:20:25 μg/μL for the comparator lipids. Lipid nanoparticles (LNP) were prepared by targeting an N/P ratio of approximately 40/1 with saRNA. Briefly, the firefly luciferase saRNA of approximately 9659 nucleotides was diluted to 0.5 mg/mL in 5 mM citrate buffer, pH 4.5. Microfluidic mixer (Ignite from Precision Nanosystems, California, USA) was used to mix the lipid solution with the saRNA aqueous solution at a ratio of about 1:3 (vol/vol) with total flow rates above 10 ml/min. The ethanol was then removed, and the external buffer replaced with 10 mM TRIS-HCL, PH 7.4, by dialysis. Finally, the lipid nanoparticles were filtered through a 0.2 μm pore sterile filter. Lipid nanoparticle particle size was 50-150 nm diameter and polydispersity index (PI) of 0.1-0.4 as determined by Zeta Sizer (Malvern Panalytical, UK). The charge of the formulation was also measured by Zeta Sizer and ranged between 20 to −20 mV.

[4] = Weight evolution of the animals following administration of LNPs; assay type: in vivo; settings: female SWISS mice
Method: as §1

[5] = Day 1, 1 μg LNP-formulated saRNA intramuscularly
[6] = Day 3, 1 μg LNP-formulated saRNA intramuscularly
[7] = Day 5, 1 μg LNP-formulated saRNA intramuscularly
[8] = Day 7, 1 μg LNP-formulated saRNA intramuscularly
[9] = Day 10, 1 μg LNP-formulated saRNA intramuscularly
[10] = Day 15, 1 μg LNP-formulated saRNA intramuscularly
[11] = Day 20, 1 μg LNP-formulated saRNA intramuscularly

Encapsulation (%) [2] [%]	Zetapotential (mV) [3] [mV]	Polydispersity Index (PI) [3]	Z-average (nm) [3] [nm]	Weight ([4]; Day 0) [g]	Weight [4, 5] [g]	Weight [4, 6] [g]	Weight [4, 7] [g]	Weight [4, 8] [g]	Weight [4, 9] [g]	Weight [4, 10] [g]	Weight [4, 11] [g]	SMILES	Bioluminescence expression of LNPs ([1]; Day 1)	Bioluminescence expression of LNPs ([1]; Day 3)	Bioluminescence expression of LNPs ([1]; Day 5)	Bioluminescence expression of LNPs ([1]; Day 7)	Bioluminescence expression of LNPs ([1]; Day 10)	Bioluminescence expression of LNPs ([1]; Day 15)	Bioluminescence expression of LNPs ([1]; Day 20)
97.61	8.70	0.16	96.53	27.80	27.00	27.70	27.44	27.84	27.31	29.54	29.79	CCCCCCCCCCCCCCOC(=O)CCN(CCC(=O)OCCCCCCCCCCCCCC)CCN(CCC(=O)OCCCCCCCCCCCCCC)CCN1CCN(CCN(CCC(=O)OCCCCCCCCCCCCCC)CCC(=O)OCCCCCCCCCCCCCC)CC1 [Comparator 2 (C2), reference compound]	2.19E+07	8.21E+07	2.21E+08	1.62E+08	2.27E+07	2.04E+05	9.42E+04
92.78	−18.67	0.28	100.07	27.91	27.31	28.51	28.46	28.44	29.13	30.50	32.44	CCCCCCC(CCCC)C(=O)OCCN(CCOC(=O)C(CCCC)CCCCCC)CCN(CCOC(=O)C(CCCC)CCCCCC)CCN1CCN(CCN(CCOC(=O)C(CCCC)CCCCCC)CCOC(=O)C(CCCC)CCCCCC)CC1 (stereo not shown) [Compound 9-26, ((2-(4-(2-((2-(bis(2-((2-butyloctanoyl)oxy)ethyl)amino)ethyl) (2-((2-butyloctanoyl)oxy)ethyl)amino)ethyl)piperazin-1-yl)ethyl)azanediyl) bis(ethane-2,1-diyl)bis(2-butyloctanoate)]	8.16E+06	2.76E+08	6.92E+08	6.31E+08	2.23E+07	4.91E+05	7.78E+04
92.26	−13.70	0.22	86.24	26.83	25.36	27.37	26.96	27.29	27.20	28.79	29.60	CCCCCCC(CCCC)C(=O)OCCCCN(CCCCOC(=O)C(CCCC)CCCCCC)CCN1CCN(CCN(CCCCOC(=O)C(CCCC)CCCCCC)CCCCOC(=O)C(CCCC)CCCCCC)CC1 (stereo not shown) [Compound 9-33, ((piperazine-1,4-diylbis(ethane-2,1-diyl))bis(azanetriyl))tetrakis(butane-4,1-diyl) tetrakis(2-butyloctanoate)]	3.79E+07	6.90E+08	1.45E+09	1.02E+09	5.76E+06	5.96E+05	1.21E+05
94.31	−10.51	0.15	102.48	29.59	29.53	29.74	30.04	30.93	30.63	30.89	32.69	CCCCCCCCC(CCCCCC)C(=O)OCCN(CCOC(=O)C(CCCCCC)CCCCCCCC)CCN(CCOC(=O)C(CCCCCC)CCCCCCCC)CCN1CCN(CCN(CCOC(=O)C(CCCCCC)CCCCCCCC)CCOC(=O)C(CCCCCC)CCCCCCCC)CC1 (stereo not shown) [Compound 9-29, ((2-(4-(2-((2-(bis(2-((2-hexyldecanoyl)oxy)ethyl)amino)ethyl) (2-((2-hexyldecanoyl)oxy)ethyl)amino)ethyl)piperazin-1-yl)ethyl)azanediyl)bis(ethane-2,1-diyl) bis(2-hexyldecanoate)]	4.13E+05	1.68E+07	4.25E+07	6.13E+07	3.92E+07	1.44E+06	5.43E+05
